This test deals with bacterial pool of E. coli, S. aureus, and P. aeruginosa. Put plainly: Antibacterial challenge testing of foaming hand soap (Example 2A). It is filed as cell-based. As for the experimental part:
For antibacterial challenge testing, one vial each of E. coli, S. aureus, and P. aeruginosa was rehydrated in 1 mL peptone buffer. The concentrations of the cell suspensions were determined based on the Certificates of Analysis accompanying each bacteria vial, and the suspensions were combined and diluted in BPDB to make a 3×10^8 CFU/mL bacterial pool composed of 1×10^8 CFU/mL of each of E. coli, S. aureus, and P. aeruginosa at a final volume of 1 mL. For antifungal challenge testing, one vial of C. albicans was rehydrated in 1 mL peptone buffer. The concentration of the cell suspension was determined based on the Certificate of Analysis accompanying the vial of yeast. The resuspended cells were diluted in BPDB to 3×10^7 CFU/mL at a final volume of 1 mL.
The enumeration of the microbial population in antibacterial and antifungal challenge testing was performed in the following manner. At day 0, a 3-mL sample was collected from each of the prepared formulations and inoculated with 0.03 mL of the bacterial pool to obtain a final inoculum of 3×10^6 CFU/mL. The inoculated samples were maintained under the same conditions from day 0 to day 7. At each analysis timepoint, the inoculated samples were subjected to 10-fold serial dilutions in BPDB to obtain diluted samples such that 25-250 colonies were estimated to be yielded from 0.1 mL of the diluted sample plated on a tryptic soy agar petri dish containing Polysorbate 80 and Lecithin. The petri dishes were incubated at 31.5+/−1° C. for 24 to 48 hours. The petri dishes were then removed from the incubator and the colonies were counted and multiplied by their corresponding dilution factors to determine the bacterial concentrations (in CFU/mL) of the samples. At day 2 and day 7 post-inoculation, the serial dilutions, plating, and colony counting were repeated to monitor the changes in bacterial population.

Setting [1] is: foaming hand soap pH 6.5, sodium benzoate 0.5% alone.
Where [2] appears, read: foaming hand soap pH 6.5, sodium benzoate 0.5% alone, listed as sodium benzoate.
The mark [3] stands for this setting: foaming hand soap pH 7.0, sodium benzoate 1% alone.
The mark [4] stands for this setting: foaming hand soap pH 7.0, sodium benzoate 1% alone, listed as sodium benzoate.
Setting [5] is: foaming hand soap pH 7.5, sodium benzoate 1% alone.
Setting [6] is: foaming hand soap pH 8.0, sodium benzoate 1% alone.

Take `O=C([O-])c1ccccc1.[Na+]` [Sodium Benzoate, Sodium benzoate]: the “Day 2 log reduction in CFU/mL compared to Day 0” value by setting is: under setting [1], 0.84 log CFU/mL; under setting [2], “Modest reductions”; under setting [3], 0.88 log CFU/mL; under setting [4], “Modest reductions”; under setting [5], −0.62 log CFU/mL; under setting [6], −0.90 log CFU/mL. For the same compound, the “Day 7 log reduction in CFU/mL compared to Day 0” value is recorded as −1.25 log CFU/mL under setting [1]; “no reduction” under setting [2]; −1.39 log CFU/mL under setting [3]; “no reduction” under setting [4]; −1.23 log CFU/mL under setting [5]; “no reduction” (foaming hand soap pH 7.5, sodium benzoate 1% alone, listed as sodium benzoate). In addition, the “Day 7 log reduction in CFU/mL compared to Day 0” value is, setting by setting: under setting [6], −0.91 log CFU/mL; (foaming hand soap pH 8.0, sodium benzoate 1% alone, listed as sodium benzoate) “no reduction”.

The values above are taken from patent publication US20250204525A1, “ANTIMICROBIAL COMPOSITIONS” (Curie Co. Inc., priority 2023, published 2025).
